Results from US7041280B2, “Aryl boronate functionalized polymers for treating obesity” (Genzyme Corporation, priority 2001, dated 2006).

Test system: fat absorption through lipase inhibition in rats
Conditions: rats gavaged with 4 mL olive oil emulsion with drug after 18 hour fast, intestinal contents after 8 hours; for In Vivo Infusion Assay in Rats ED50 (mg/g fat) or estimate: dose at half the maximum recoverable triglyceride; for In Vivo Infusion Assay in Rats Ed50 (mg/kg body wt) or estimate: dose per body weight
Experimental: Compounds were evaluated in rats to determine their in vivo potency in inhibiting fat absorption through lipase inhibition. Rats were acclimated to the facility for approximately 1 week in individual wire-bottom cages and provided a standard chow diet and water ad libitum. […] Test compounds were dissolved in DMSO or deionized water. Drug solutions were mixed thoroughly in the olive oil emulsion just prior to administration. After 8 hours, rats were euthanized with CO2 and the intestines were removed. The intestinal contents were harvested from the lower half of the small intestine and the cecum. Contents were placed in separate, pre-weighed, 15 milliliter conical screw cap tubes in a (dry ice/alcohol bath) to maintain freezing temperature until the final freeze of all samples. Samples were stored at −80° C. until lyophilization.
Samples were freeze-dried and ground, then analyzed for triglyceride and fatty acid.
A 20 milligram aliquot of each sample was weighed and transferred to a 15 milliliters conical tube. 3 milliliters of hexane were added to each tube, which were capped and vortexed for 15 seconds at high speed. 3 milliliters of 1 N HCl were added and the samples were then subjected to wrist-action shaking for 1 hour. Samples were then centrifuged for 5 minutes at 3500 rpm and the hexane layer was collected. An aliquot of the hexane layer was diluted in hexane and analyzed for triglyceride, diglyceride and fatty acid by HPLC as described above.
The data was expressed as follows. The milligrams of intestinal contents that was extracted and the total number of milligrams collected were recorded. The milligrams/milliliters values obtained from the HPLC analysis were entered. The individual lipid components were calculated and expressed as total milligrams recovered. Dose units are expressed as the milligrams of drug per gram of oil administered to each rat. The ED50's were determined by extrapolating the dose value at half the maximum obtainable triglyceride recoverable in the assay.

Substance | In Vivo Infusion Assay in Rats ED50 (mg/g fat) or estimate | In Vivo Infusion Assay in Rats Ed50 (mg/kg body wt) or estimate
poly(N-diethanolaminopropyl)acrylamide conjugated with 4-(14′-trimethylammonium-3′-thia-1′-ketotetradecyl)-3-fluorophenylboronic acid bromide [Polymer 2] | 4.5 mg/g fat | 33.8 mg/kg body wt
poly(N-diethanolaminopropyl)acrylamide conjugated with 4-(14′-trimethylammonium-3′-thia-1′-ketotetradecyl)phenylboronic acid bromide [Polymer 3] | 20 mg/g fat | 150 mg/kg body wt
Poly(N-diethanolaminopropyl)acrylamide conjugated with 4-(14′-hydroxy-3′-thia-1′-ketotetradecyl)phenylboronic acid [Polymer 6] | 36 mg/g fat | 270 mg/kg body wt
poly(N-diethanolaminopropyl)acrylamide conjugated with 4-(14′-trimethylammonium-3′-thia-1′-ketotetradecyl)-3-fluorophenylboronic acid bromide [Polymer 1] | 3 mg/g fat | 22.5 mg/kg body wt
Poly(N-diethanolaminopropyl)acrylamide conjugated with 4-(14′-hydroxy-3′-thia-1′-ketotetradecyl)-3-fluorophenylboronic acid [Polymer 5] | 50 mg/g fat | 375 mg/kg body wt
